Measurements from ChEMBL document CHEMBL1134155, “Synthesis and HIV-1 integrase inhibitory activities of catechol and bis-catechol derivatives” (Bioorg Med Chem Lett, 2001).

How the values were obtained:
[1] = Cytotoxicity in a cell viability MTT assay; format: functional; details: read-out: TC50 (the source's name)
CCRF-CEM = assay: Tested for antiviral activity against Human Immunodeficiency virus (HIV-1) replication in CEM cells.; format: functional, cell-based
[2] = molecular target: Human immunodeficiency virus type 1 integrase (Human immunodeficiency virus 1, UniProt Q7ZJM1); assay: Inhibition of human immunodeficiency virus - 1 (HIV-1) integrase
Sequence of Human immunodeficiency virus type 1 integrase (Q7ZJM1 whole entry): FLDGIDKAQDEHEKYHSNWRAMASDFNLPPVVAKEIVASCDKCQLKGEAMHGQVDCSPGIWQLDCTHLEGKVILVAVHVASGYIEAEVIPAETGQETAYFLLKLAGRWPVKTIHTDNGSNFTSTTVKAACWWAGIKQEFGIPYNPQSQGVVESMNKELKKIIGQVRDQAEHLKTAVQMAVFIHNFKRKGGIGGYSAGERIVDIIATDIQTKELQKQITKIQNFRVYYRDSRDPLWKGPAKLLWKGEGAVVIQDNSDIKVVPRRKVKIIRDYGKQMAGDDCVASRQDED

Row | Structure (SMILES) | IC50 (CCRF-CEM) [µM] | IC50 [2] [µM] | CC50 [1] [µM]
1 | Cc1cc2cc(O)c(O)cc2c(C)c1-c1ccccc1F |  | 500 | 
2 | Cc1cc2c(F)cccc2c(C)c1-c1ccc(O)c(O)c1 |  | 500 | 
3 | Cc1cc2ccc(F)cc2c(C)c1-c1ccc(O)c(O)c1 |  | 500 | 
4 | Cc1ccc2cc(C)c(-c3ccc(O)c(O)c3)c(C)c2c1 |  | 157 | 
5 | Oc1cc2c(cc1O)C1Cc3cc(O)c(O)cc3C(C2)O1 | 98 | 1.3 | > 100
6 | Oc1ccc(-c2ccc3cc(O)c(O)cc3c2)cc1O | 9.9 | 2.1 | 51
7 | Cc1cc2ccccc2c(C)c1-c1ccc(O)c(O)c1 |  | 500 | 

Now from value to molecule, other results behind:

Row | IC50 (CCRF-CEM) [µM] | IC50 [2] [µM] | Structure (SMILES) | CC50 [1] [µM]
8 | 5.7 | 13 | Cc1cc2cc(O)c(O)cc2c(C)c1-c1cccc(C(F)(F)F)c1 | 72.6
9 | 10.3 | 22 | Cc1cc2cc(O)c(O)cc2c(C)c1-c1ccccc1C(F)(F)F | 13.6
10 |  | 84 | Cc1ccc(-c2c(C)cc3cc(O)c(O)cc3c2C)cc1 | 
11 | 8.7 | 23 | Cc1cc2cc(O)c(O)cc2c(C)c1-c1ccc(O)c(O)c1 | 33
12 | 10.5 | 21 | Cc1cc2cc(O)c(O)cc2c(C)c1-c1ccc(C(F)(F)F)cc1 | 19
13 |  | 76 | Cc1cc2cc(O)c(O)cc2c(C)c1-c1ccccc1 | 
14 |  | 138 | Cc1cc2cc(O)c(O)cc2c(C)c1-c1ccc(F)cc1 | 
